# Patent US8173771B2, “Humanin receptor or humanin-like polypeptide receptor” (Keio Univeristy, priority 2005, dated 2012)
# Peptide text beside a SMILES is read from it.
# Test system: STAT3
# Test: Immunoblot of phosphotyrosine 705 of STAT3 in F11 cells
# Type: cell-based
# Method: E) F11 cells were transfected with an indicated amount of pRNA-U6.1/Shuttle vector (empty), pRNA-U6.1/Shuttle-IL-6R siRNA, or pRNA-U6.1/Shuttle-LIFR siRNA. At 48 hrs after transfection, the cells were treated with 100 ng/ml IL-6, 100 ng/ml CNTF or 1 μM HNG at 37° for 15 min, and harvested. The results of immunoblot analysis using anti-phophoSTAT3 ([…]) antibody and anti-STAT3 antibody were shown in photos. A) F11 cells were added with an indicated amount of HN, HNG or HNA and harvested 15 min later for immunoblot analysis with antibodies recognizing phosphotyrosine 705 of STAT3 or STAT3. The results are shown in photos. B) F11 cells were transfected with 0.5 μg of pRNA-U1.6/Shuttle vector, pRNA-U6.1/Shuttle-WSX-1 siRNA, pRNA-U6.1/Shuttle-CNTF-R siRNA, both pRNA-U6.1/Shuttle-WSX-1 siRNA and pRNA-U6.1/Shuttle-CNTF-R siRNA (0.5 μg each), or pRNA-U6.1/Shuttle-FPR2 siRNA. The total amount of vectors was adjusted to be 1.0 μg by including a backbone vector. […] The results are shown in photos. Cell lysates (10-20 μg/lane) or pulled-down precipitates were subject to SDS-PAGE, and the proteins separated on the gel were transferred onto polyvinylidene difluoride membranes as described (Hashimoto et al, 2000). Visualization of the immunoreactive protein bands was performed by ECL (Amersham Pharmacia Biotech, Uppsala, Sweden).
smiles,measurement,setting,value
"CC[C@H](C)[C@H](NC(=O)[C@H](CCC(=O)O)NC(=O)CNC(=O)[C@@H](NC(=O)[C@H](CC(C)C)NC(=O)[C@H](CC(C)C)NC(=O)[C@H](CC(C)C)NC(=O)[C@H](CC(C)C)NC(=O)[C@H](CS)NC(=O)[C@H](CO)NC(=O)[C@H](Cc1ccccc1)NC(=O)CNC(=O)[C@H](CCCNC(=N)N)NC(=O)[C@@H]1CCCN1C(=O)[C@H](C)NC(=O)[C@@H](N)CCSC)[C@@H](C)O)C(=O)N[C@@H](CC(=O)O)C(=O)N[C@@H](CC(C)C)C(=O)N1CCC[C@H]1C(=O)N[C@H](C(=O)N[C@@H](CCCCN)C(=O)N[C@@H](CCCNC(=N)N)C(=O)N[C@@H](CCCNC(=N)N)C(=O)N[C@@H](C)C(=O)O)C(C)C [HNG, S14 G-Humanin] (H-MAPRGFSCLLLLTGEIDLPVKRRA-OH; N-terminus and C-terminus assumed)",phosphorylation of tyrosine 705 of STAT3,"F11 cells, 15 min",increased
same,phosphorylation of tyrosine 705 of STAT3,decrease of expression of endogenous CNTF-R or WSX-1 by siRNA,almost completely inhibited
